The source of these data is PubChem BioAssay AID608 (Sanford-Burnham Center for Chemical Genomics, 2007).

pKd: −log10 of the molar value. Calls of active or inactive are those of the source. The rule behind the calls is not given here.

In this assay the target is Peptidyl-prolyl cis-trans isomerase FKBP1A (Homo sapiens) (UniProt P62942). As to the kind of experiment: FKBP12 binders, biophysical, NMR detection (AID 608). As to conditions: NMR binding, purified FKBP12.
Sequence of Peptidyl-prolyl cis-trans isomerase FKBP1A (Homo sapiens) (P62942 whole entry, looked up): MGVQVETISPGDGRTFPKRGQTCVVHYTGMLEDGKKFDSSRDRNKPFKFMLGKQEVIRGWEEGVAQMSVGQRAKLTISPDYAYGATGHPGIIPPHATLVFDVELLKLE
As for `N#Cc1cn(CC(=O)N2CCCC2)c2ccccc12`, the Kd is > 4 mM (inactive).

Consider `CC(=O)Nc1cc(C(N)=O)cc(C(N)=O)c1`, for which the Kd is > 4 mM (inactive).

Consider `O=C(O)CCC(=O)Nc1nnc(C(F)(F)F)s1`, for which the Kd is > 4 mM (inactive). Same read-out and setting: next, `CN1CC(=O)N=C1N`: > 4 mM (inactive). Regarding `O=C(NCc1cccc(Cl)c1)c1cccnc1`, the Kd was > 4 mM (inactive). Consider `O=C1CSC2=NCCCN12`, for which the Kd was > 4 mM (inactive).

Take `Cc1noc(C)c1C(=O)Nc1sc(C)c(C)c1C#N`: the Kd was > 4 mM (inactive). Turning to `CC1(C)SCC(C(=O)O)N1C=O` (stereo not given), the Kd is > 4 mM (inactive). For the compound `COc1ccc(Cl)cc1NC(=O)c1ccco1`, the Kd is > 4 mM (inactive). With `CC(=O)c1ccc2c(c1)OCCO2`, the Kd was > 4 mM (inactive).

Regarding `NC(=O)Cn1cnc(-c2ccc(F)cc2)c1`, the Kd was > 4 mM (inactive). On to `N#Cc1nc(N2CCCCC2)nc(N2CCOCC2)n1`, for which the Kd was > 4 mM (inactive). Turning to `COC(=O)N(c1ccccc1)P1(=S)OCCO1`, the Kd is > 4 mM (inactive).

Turning to `Cc1cc(C)nc(NC(N)=NCc2ccco2)n1`, the Kd was > 4 mM (inactive). Regarding `NCCN=C1NS(=O)(=O)c2ccccc21`, the Kd was > 4 mM (inactive).

On to `O=c1ccc2cc(O[C@@H]3O[C@H](CO)[C@@H](O)[C@H](O)[C@H]3O)c(O)cc2o1`, for which the Kd is > 4 mM (inactive). On the same count and under the same terms, the result for `c1ccc(C2NCCc3[nH]cnc32)cc1` (stereo not given) reads > 4 mM (inactive); that for `COc1ccc(-c2coc3c(O)c(OC)ccc3c2=O)cc1`, > 4 mM (inactive); that for `Fc1ccc(N2CCNCC2)cc1`, > 4 mM (inactive). With `CC1CN(C(=O)C(Sc2ccccc2)c2ccccc2)CC(C)O1` (stereo not given), the Kd entry was “inactive”. Consider `CCn1nnnc1Oc1ccc(Cl)cc1`, for which the Kd is > 4 mM (inactive). The same measure, in the same setting: next, `Cn1ncc(N2CCOCC2)c(Cl)c1=O`: > 4 mM (inactive); `O=C(O)c1cccnc1`: > 4 mM (inactive). In the case of `COC(=O)[C@@]1(C)CCC[C@]2(C)c3ccc(O)c(C(C)C)c3CCC12` (stereo not given in full), the Kd is > 4 mM (inactive). Same read-out and setting: the result for `Cc1nc2ccccc2c2c1C(=O)N(C)C2=O` reads > 4 mM (inactive); that for `O=C(O)CC1C(=O)NCCN1Cc1ccccc1` (stereo not given), > 4 mM (inactive); that for `COc1cc2c(cc1NS(=O)(=O)N1CCCCC1)oc1ccccc12`, > 4 mM (inactive).

Take `COc1cc2c(cc1O)CCNC2C` (stereo not given): the Kd is > 4 mM (inactive). Still for that read-out and setting: next, `CNC(=S)Nc1ccc(C(=O)O)cc1`: > 4 mM (inactive); `Cc1cccc(CO)n1`: > 4 mM (inactive). For `Cn1cnc2nc3n(c2c1=O)CCC3`, the Kd is > 4 mM (inactive).

Turning to `Cc1cc2ncc(C(=O)O)c(C)n2n1`, the Kd was > 4 mM (inactive). Take `C=CC1=C(C)/C(=C/c2[nH]c(Cc3[nH]c(/C=C4\NC(=O)C(C)=C4C=C)c(C)c3CCC(=O)O)c(CCC(=O)O)c2C)NC1=O`: the Kd was > 4 mM (inactive). The same measure, in the same setting: the result for `COCCn1c(SC)nc2c1c(=O)[nH]c(=O)n2C` reads > 4 mM (inactive); that for `COc1cc(O)c(C)c(O)c1`, > 4 mM (inactive). The same measure, in the same setting: next, `COc1ccc(S(=O)(=O)N2CCC(C(N)=O)CC2)cc1`: > 4 mM (inactive); `O=C(O)c1snnc1-c1ccccc1`: > 4 mM (inactive). Regarding `CC(C)c1ccc(SC(F)(F)C(=O)N2CCOCC2)cc1`, the pKd was 5.55. In the case of `O=C1CCC(=O)N1CN1CCOCC1`, the Kd was > 4 mM (inactive). Still for that read-out and setting: next, `O=C(Nc1ccccc1F)c1ccncc1`: > 4 mM (inactive); `Cc1cc(C(=O)Nc2ccon2)cs1`: > 4 mM (inactive); `CCOC(=O)c1csc(N)n1`: > 4 mM (inactive). As for `Nc1ccc(Cc2ccncc2)cc1`, the Kd was > 4 mM (inactive).

Regarding `COc1ccc(C2=CC(=O)C=CC2=O)cc1`, the Kd is > 4 mM (inactive). For the compound `CCc1c(C(=O)Nc2ccncc2)csc1C`, the Kd is > 4 mM (inactive).

For the compound `CC(C)NC(=O)c1nc2ccccc2s1`, the Kd is > 4 mM (inactive). Still for that read-out and setting: next, `COc1cc(-c2coc3cc(OCc4ccccc4)c(OC)c(O)c3c2=O)cc(O)c1OC`: > 4 mM (inactive). Same read-out and setting: next, `O=c1c(-c2cccs2)[n+]([O-])c2ccccc2n1O`: > 4 mM (inactive); `O=C1CC(NCc2ccco2)C(=O)NN1` (stereo not given): > 4 mM (inactive). With `CC(C)CC(=O)Nc1c[nH]c(=O)[nH]c1=O`, the Kd is > 4 mM (inactive). Regarding `Cc1cc(C)c(OCC(=O)N2CCOCC2)c(C)c1`, the Kd result is “inactive”. Same read-out and setting: the result for `NC(=O)c1ccsc1NC(=O)c1cccnc1` reads > 4 mM (inactive); that for `O=C(/C=C/c1ccccc1)c1ccc(O[C@@H]2O[C@H](CO)[C@@H](O)[C@H](O)[C@H]2O)cc1O`, > 4 mM (inactive); that for `CC(=O)Nc1ccc(NC(=O)N2CCOCC2)cc1`, > 4 mM (inactive). Take `COc1ccc(-c2ccc(OC)cc2C(=O)O)cc1`: the Kd was > 4 mM (inactive). On the same count and under the same terms, the result for `COc1cc(O)c2c(=O)cc(-c3ccc(OC)c(-c4c(O)cc(O)c5c(=O)cc(-c6ccc(O)cc6)oc45)c3)oc2c1` reads > 4 mM (inactive); that for `CNC(=O)C1=NCCCc2cc(OC)c(OC)cc21`, > 4 mM (inactive); that for `O=C1NC2NC(=O)N(c3ccccc3)C2N1` (stereo not given), > 4 mM (inactive). Take `O=C(/C=C/c1ccc(O)c(O)c1)O[C@@H]1C[C@](O)(C(=O)O)C[C@@H](O)[C@H]1O`: the Kd was > 4 mM (inactive). As to `NC(=O)CN1CC(=O)NC(=O)C1`, the Kd is > 4 mM (inactive).

As for `O=C(O)CCC(=O)NCc1cccnc1`, the Kd is > 4 mM (inactive).

With `NC(=O)c1ccsc1NC(=O)c1ccco1`, the Kd is > 4 mM (inactive).

Consider `CCn1cnc2cc([N+](=O)[O-])ccc2c1=O`, for which the Kd was > 4 mM (inactive). `Cc1ccc(NC(=O)C2CCCNC2=O)nc1` (stereo not given): the Kd is > 4 mM (inactive). The same measure, in the same setting: next, `O=C1COc2ccc(C(=O)c3ccccc3)cc2CN1`: > 4 mM (inactive). Consider `CC(C)=CC(=O)Nc1ccc(S(N)(=O)=O)cc1`, for which the Kd was > 4 mM (inactive). Consider `Cc1ccnc(NS(=O)(=O)c2ccccc2)n1`, for which the Kd is > 4 mM (inactive).

Take `COc1cc2c(cc1OC)[C@@H]1C(=O)c3ccc4c(c3O[C@@H]1CO2)CC(C(C)C)O4` (stereo not given in full): the Kd is > 4 mM (inactive). `Cc1csc(SCC(=O)N2CCCC2)n1`: the Kd is > 4 mM (inactive). With `OCC1CNc2ccccc2O1` (stereo not given), the Kd was > 4 mM (inactive). Same read-out and setting: next, `CN(C)c1ccc(/C=C2/NC(=S)NC2=O)cc1`: > 4 mM (inactive); `O=C(Nc1cnccn1)c1cccc(C(F)(F)F)c1`: > 4 mM (inactive); `O=C1CSC(=O)N1c1cccc(O)c1`: > 4 mM (inactive). On the same count and under the same terms, the result for `Cc1ccccc1-n1c(-c2cccnc2)n[nH]c1=S` reads > 4 mM (inactive). As for `COc1ccc(/C=C/c2cc(O)cc(O)c2)cc1`, the Kd is > 4 mM (inactive).

As for `OC1CCNC2CCCCC12` (stereo not given), the Kd is > 4 mM (inactive).

As to `CON(C)C(=O)Nc1ccc(Cl)cc1`, the Kd is > 4 mM (inactive). For the compound `CN(Cc1nc2ccccc2n1C)C(=O)c1cccs1`, the Kd was > 4 mM (inactive). Same read-out and setting: the result for `CC[C@H]1CN2CCC1C[C@@H]2[C@@H](O)c1ccnc2ccc(OC)cc12` (stereo not given in full) reads > 4 mM (inactive); that for `Clc1ccccc1OCc1nc(-c2ccncc2)no1`, > 4 mM (inactive); that for `CN(C)S(=O)(=O)c1ccc(C(=O)NN)cc1`, > 4 mM (inactive). For `O=C(CSc1ccnc(=O)[nH]1)NCc1ccccc1`, the Kd is > 4 mM (inactive).

As to `O=c1[nH]nc(Cc2ccncc2)c2ccccc12`, the Kd was > 4 mM (inactive).

With `CC(=O)O[C@@H]1CC2C(C)(C)C(=O)C=C[C@]2(C)C2CC[C@@]3(C)[C@H](c4ccoc4)OC(=O)[C@H]4O[C@]43[C@@]21C` (stereo not given in full), the Kd was > 4 mM (inactive). The same measure, in the same setting: the result for `O=C(NCc1cccs1)c1nc2ncccn2n1` reads > 4 mM (inactive); that for `O=C1CNC(=O)N1Cc1ccc(F)cc1`, > 4 mM (inactive); that for `COc1cc2nc[nH]c(=O)c2cc1OC`, > 4 mM (inactive). `O=C(O)CC1NCCNC1=O` (stereo not given): the Kd was > 4 mM (inactive). Same read-out and setting: next, `CC(=O)c1c(O)cc(O)cc1O`: > 4 mM (inactive); `O=C(Nc1cccnc1)c1cnn2cccnc12`: > 4 mM (inactive); `O=C(O)C1CC(C2CCCCN2)CN2CCCCC12` (stereo not given): > 4 mM (inactive). Same read-out and setting: next, `OCc1csc(-c2cccs2)n1`: > 4 mM (inactive); `N#CCSc1nc(-c2ccccc2)cs1`: > 4 mM (inactive). Same read-out and setting: the result for `O=C1NC(=O)C(Cc2ccccc2)C(=O)N1` reads > 4 mM (inactive). In the case of `NC(=O)CS(=O)(=O)c1ccc2ccccc2c1`, the Kd is > 4 mM (inactive). The same measure, in the same setting: next, `NC1=NC(=O)CC(C(=O)Nc2ccccc2)S1` (stereo not given): > 4 mM (inactive); `OCc1nc2ccccc2s1`: > 4 mM (inactive). For the compound `O=S1(=O)C=C(Nc2ccccc2)CC1`, the pKd was 3.87. Take `NCCc1cnc[nH]1`: the Kd is > 4 mM (inactive).

Turning to `CCOC(=O)CN1C(=O)c2ccccc2C1=O`, the Kd was > 4 mM (inactive). Still for that read-out and setting: next, `Nc1ccc(Cc2ccc(N)cc2)cc1`: > 4 mM (inactive). The same measure, in the same setting: the result for `CCOC(=O)C1=C(C)N2CCN=C2S1` reads > 4 mM (inactive); that for `COC1=C(OC)C(=O)C(C/C=C(\C)CC/C=C(\C)CC/C=C(\C)CC/C=C(/C)CC/C=C(\C)CC/C=C(\C)CC/C=C(\C)CC/C=C(\C)CC/C=C(\C)CCC=C(C)C)=C(C)C1=O`, > 4 mM (inactive). As to `O=C(COc1cccc(Cl)c1)N1CCOCC1`, the Kd result is “inactive”. Same read-out and setting: next, `O=C1NC(=S)NC(=O)C1=Cc1ccco1`: > 4 mM (inactive).
